Experimental data: patent US7897628B2, “Aryl carbonyl derivatives as therapeutic agents” (Novo Nordisk A/S, priority 2002, dated 2011)

Test system: glucokinase
Assay: Liver specificity: activity in isolated hepatocytes (Glucokinase Activity Assay (II)) compared to Ins-1 cells (Glucokinase Activity Assay (III))
Type: cell-based
Settings: Glucokinase Activity Assay (II) (isolated hepatocytes) compared to Glucokinase Activity Assay (III) (Ins-1 cells)
Source text: For the purpose of describing this invention, the potential liver selectivity of a glucokinase activator may be assayed by comparison of the results obtained in response to the glucokinase activator in isolated hepatocytes and the results obtained in response to the glucokinase activator in Ins-1 cells. […] The activity of the glucokinase activator in Glucokinase Activity Assay (II) (hepatocytes) may for instance be at least 1.1 fold higher, such as at least 1.2 fold higher, for instance at least 1.3 fold higher, such as at least 1.4 fold higher, for instance 1.5 fold higher, such as at least 1.6 fold higher, for instance at least 1.7 fold higher, such as at least 1.8 fold higher, for instance at least 1.9 fold higher, such as at least 2.0 fold higher, for instance at least a 3.0 fold higher, such as at least a 4.0 fold higher, for instance at least 5.0 fold higher, such as at least 10 fold higher than the activity of the glucokinase activator in Glucokinase Activity Assay (III) (Ins-1 cells). Alternatively, the glucokinase activator may show no activity in the Ins-1 cells measured as described in the Glucokinase Activity Assay (III), while showing a significant activity in hepatocytes measured as described in the Glucokinase Activity Assay (II).

SMILES	liver specific glucokinase activator (significantly higher activity in isolated hepatocytes than in Ins-1 cells)
COc1cccc(F)c1Oc1ccc(F)cc1NC(=O)Nc1nc(CC(=O)NCCN2CCOCC2)cs1 [2-(2-{3-[5-fluoro-2-(2-fluoro-6-methoxyphenoxy)phenyl]ureido}thiazol-4-yl)-N-(2-morpholin-4-ylethyl)acetamide]	liver specific glucokinase activators
CCOC(=O)c1csc(NC(=O)Nc2cc(F)ccc2Oc2cccc(OC)c2OC)n1 [2-{3-[2-(2,3-dimethoxyphenoxy)-5-fluorophenyl]ureido}thiazole-4-carboxylic acid ethyl ester]	liver specific glucokinase activators
COc1cccc(F)c1Oc1ccc(F)cc1NC(=O)Nc1nc(CC(=O)O)cs1 [(2-{3-[5-fluoro-2-(2-fluoro-6-methoxyphenoxy)phenyl]ureido}thiazol-4-yl)acetic acid]	liver specific glucokinase activators
CCOC(=O)Cc1csc(NC(=O)Nc2cc(F)ccc2Oc2cccc(OC)c2OC)n1 [(2-{3-[2-(2,3-dimethoxyphenoxy)-5-fluorophenyl]ureido}thiazol-4-yl)acetic acid ethyl ester]	liver specific glucokinase activators
COc1cccc(F)c1Oc1ccc(F)cc1NC(=O)Nc1nc(CC(=O)NCC(=O)O)cs1 [[2-(2-{3-[5-fluoro-2-(2-fluoro-6-methoxyphenoxy)phenyl]ureido}thiazol-4-yl)acetylamino]acetic acid]	liver specific glucokinase activators
Cc1ccc(NC(=O)Nc2nc(CC(=O)O)cs2)c(OCC(C)C)c1 [{2-[3-(4-methyl-2-[2-methylpropoxy]phenyl)-ureido]-thiazol-4-yl}-acetic acid]	liver specific glucokinase activators
COc1cccc(Oc2ccc(F)cc2NC(=O)Nc2nc(C(=O)O)cs2)c1OC [2-{3-[2-(2,3-dimethoxyphenoxy)-5-fluorophenyl]ureido}thiazole-4-carboxylic acid]	liver specific glucokinase activators
Cc1ccc(NC(=O)Nc2nc(CC(=O)O)cs2)c(C(=O)C2CCCC2)c1 [{2-[3-(2-cyclopentanecarbonyl-4-methyl-phenyl)-ureido]-thiazol-4-yl}-acetic acid]	liver specific glucokinase activators
